In paper PMC4919791, “Effect of curcumin analogs onα-synuclein aggregation and cytotoxicity” (Scientific Reports, 2016):

Key:
[1] = molecular target: T1, preformed α-Syn amyloid fibrils (Homo sapiens, UniProt P37840); test: MTT assay of preformed α-Syn fibrils incubated with curcumin analogs; assay type: cell-based; conditions: fibrils incubated with analog 48 h at 37 °C; SH-SY5Y cells
T1 construct: made in house; host or cells: Escherichia coli BL21
Experimental: (§1) The concentration of the fibrils was determined by subtraction of supernatant concentration from the original concentration of α-Syn kept for fibrillation.

preformed α-Syn fibrils [2] = molecular target: T2, preformed α-Syn fibrils (Homo sapiens, UniProt P37840); test: LDH cytotoxicity assay of preformed α-Syn fibrils incubated with curcumin analogs; assay type: cell-based; conditions: fibrils incubated with analog 48 h; SH-SY5Y cells
T2 construct: made in house; host or cells: Escherichia coli BL21
Experimental: as §1
(§2) The percent LDH release was plotted as difference in the absorbance value of 490 nm and 690 nm, considering 100% release for the TritonX-100 treated cells.

preformed α-Syn fibrils [3] = molecular target: T2, preformed α-Syn fibrils; test: Calcein-AM/EthD-1 staining, preformed α-Syn fibrils with analogs; assay type: cell-based; conditions: SH-SY5Y cells
Experimental: Previously it has been shown that curcumin decreases the toxicity of α-Syn amyloid fibrils by reducing the exposed hydrophobic surfaces. To delineate whether curcumin analogs can decrease the toxicity of preformed α-Syn fibrils, we performed cell viability assay. For this, 10-days incubated α-Syn solution was centrifuged (fibril formation was confirmed by electron microscopy (EM)) and the pelleted fibrils were then re-dissolved in same volume of 20 mM MES buffer (pH 6.0, 0.01% NaN3). The concentration of the fibrils was determined by subtraction of supernatant concentration from the original concentration of α-Syn kept for fibrillation. […] After incubation, we measured the effect of curcumin analogs on the toxicity of preformed α-Syn amyloid fibrils by MTT reduction assay on SH-SY5Y cells. […]
(§3) For this assay, SH-SY5Y cells were seeded in 96 well plate and incubated with identical concentrations of oligomers/fibrils (as used in MTT assay) in absence and presence of curcumin and its analogs for 36 h in 5% CO2 incubator at 37 °C. […] Calcein-AM/Ethidium homodimer-1 signal was then checked and imaged with an inverted fluorescence microscope (Leica DMi8). […] The free calcein emits strong fluorescence signal at ~535 nm, which could be easily observed in the green channel of a microscope. […]

preformed α-Syn fibrils [4] = molecular target: T2, preformed α-Syn fibrils; test: CD spectroscopy of preformed α-Syn fibrils with analogs; assay type: biochemical; conditions: 0 h and 48 h of incubation
Experimental: Further, the effect of curcumin analogs on the secondary structure of protein in preformed amyloid fibrils was studied by circular dichroism (CD) spectroscopy at 0 h and after 48 h of incubation. […] To further validate this, Fourier transform infrared spectroscopy (FTIR) was also performed with these samples, where spectra were recorded from 1500 to 1800 cm^−1.The region characteristic of protein secondary structures (1600–1700 cm^−1) was deconvoluted and the peaks were assigned according to published reports. FTIR spectra in the 1600–1700 cm^−1 region of preformed α-Syn fibrils in absence and presence of curcumin and its analogs are presented in Figs 4B and S4 and their percentage of secondary structures are shown in Table-S1.
20 μl of protein solution from 80 μM stock was diluted to 200 μl in 20 mM MES buffer, pH 6.0 with 0.01% NaN3 such that final protein concentration becomes 8 μM. The protein solution was then placed into a quartz cell (Hellma, Forest Hills, NY) of 0.1 cm path-length. Spectra were recorded using JASCO-810 instrument at 25 °C. Spectra acquisition was over the wavelength range of 198–260 nm with the scan speed of 100 nm/min, bandwidth 1 nm, data pitch 1 nm and response time of 1 sec. Processing of raw data was done by subtraction of buffer spectra and subsequently smoothing according to the manufacturer’s instructions.

α-Syn oligomers [5] = molecular target: T3, α-Syn oligomers (Homo sapiens, UniProt P37840); test: LDH cytotoxicity assay of α-Syn oligomers with C1/C6; assay type: cell-based; conditions: oligomers incubated 30 minutes with compound; SH-SY5Y cells
T3 construct: made in house; host or cells: Escherichia coli BL21
Description: (§4) It has been shown that α-Syn mutants that form oligomers preferentially are more toxic and kill dopaminergic neurons in animal models as compared to fibril forming mutants. Therefore, compounds that effectively reduce the toxicity of oligomers could be beneficial for the treatment of PD. In the present study, we tested the effect of curcumin and its analogs on the toxicity, hydrophobic exposure and morphology of α-Syn oligomers isolated using size exclusion chromatography (SEC). The toxicity of α-Syn oligomers in presence and absence of curcumin/analogs were initially tested using MTT assay. […] To further validate the effectiveness of C6 to reduce the cytotoxicity of α-Syn oligomers, we also performed LDH cytotoxicity assay and Calcein-AM/Ethidium homodimer-1 staining. […] As previously it has been proposed that curcumin reduces the oligomers toxicity by altering their exposed hydrophobic surface, we also measured the hydrophobic surface exposure of preformed α-Syn oligomers incubated with curcumin and its analogs.
10 μM of α-Syn oligomers/fibrils incubated with and without 5 μM curcumin/analogs were added to SH-SY5Y cells (10,000 cells/well) in 96 well plate. […] The percent LDH release was plotted as difference in the absorbance value of 490 nm and 690 nm, considering 100% release for the TritonX-100 treated cells.

α-Syn oligomers [6] = molecular target: T3, α-Syn oligomers; test: Calcein-AM/EthD-1 staining, α-Syn oligomers with C1/C6; assay type: cell-based; conditions: SH-SY5Y cells
Description: It has been shown that α-Syn mutants that form oligomers preferentially are more toxic and kill dopaminergic neurons in animal models as compared to fibril forming mutants. Therefore, compounds that effectively reduce the toxicity of oligomers could be beneficial for the treatment of PD. In the present study, we tested the effect of curcumin and its analogs on the toxicity, hydrophobic exposure and morphology of α-Syn oligomers isolated using size exclusion chromatography (SEC). The toxicity of α-Syn oligomers in presence and absence of curcumin/analogs were initially tested using MTT assay. […] As previously it has been proposed that curcumin reduces the oligomers toxicity by altering their exposed hydrophobic surface, we also measured the hydrophobic surface exposure of preformed α-Syn oligomers incubated with curcumin and its analogs.
as §3

α-Syn oligomers [7] = molecular target: T3, α-Syn oligomers; test: TEM of α-Syn oligomers with C1/C6; assay type: biochemical
Description: as §4
5 μl of various species of α-Syn (50 μM) incubated in absence and presence of curcumin and its analogs were spotted on carbon coated formavar grid and air dried for 10 min. The samples were then washed thrice with autoclaved MQ. The samples were then stained with 10 μl of uranyl formate 1% (w/v) and incubated in dark for 10 min. […]

α-Syn fibrils [8] = molecular target: T4, α-Syn fibrils (Homo sapiens, UniProt P37840); test: MTT assay of α-Syn fibrils formed in presence of curcumin analogs; assay type: cell-based; conditions: 10 μM α-Syn fibril, 36 h, SH-SY5Y
T4 construct: made in house; host or cells: Escherichia coli BL21
Experimental: Next, we measured the effect of α-Syn fibrils formed in presence and absence of curcumin analogs on the viability of SH-SY5Y neuronal cell line by MTT reduction assay. SH-SY5Y cells were incubated with 10 μM α-Syn fibril formed in presence of various curcumin analogs for 36 h. […] However, the extent of decrease in toxicity was different for different analogs. […] The calcein-AM/ethidium homodimer-1 staining also further corroborated the results obtained from MTT and LDH assay (Fig. 8C).

α-Syn fibrils [9] = molecular target: T4, α-Syn fibrils; test: LDH cytotoxicity assay of α-Syn fibrils formed in presence of curcumin analogs; assay type: cell-based; conditions: SH-SY5Y cells
Description: as §2

[10] = Stability of curcumin analogs by time-dependent intrinsic fluorescence; assay type: physicochemical; conditions: 20 mM MES buffer pH 6.0, 0.01% NaN3, 37 °C
Experimental: 1μl of this DMSO-stock solution was transferred to 2 ml microfuge tube and 1 ml of 20 mM MES buffer (pH 6.0, 0.01% NaN3) was added to it and mixed immediately by vortexing. These solutions were incubated at 37 °C and their respective fluorescence was taken at certain time intervals. The fluorescence was monitored by placing the 200 μl of the incubated solution in 0.1 cm path-length quartz cuvette (Hellma, Forest Hills, NY) and the spectra were acquired by using FluoroMax-4 spectrofluorometer (HORIBA JobinYvon) instrument with excitation and emission slit widths of 5 nm and 10 nm respectively. The fluorescence intensity maxima for each sample were plotted against time of incubation and fitted in exponential decay 1 in the Origin 8.0 software according to manufacture’s protocol (Fig. 2A).

preformed α-Syn fibrils [11] = molecular target: T2, preformed α-Syn fibrils; test: Nile red binding assay on preformed α-Syn fibrils; assay type: biochemical; conditions: fibrils incubated with analog 48 h
Experimental: (§5) Stock solution of NR was prepared in DMSO (1 mM). […] Similar experimental protocol was used for NR binding to oligomers. FluoroMax-4 spectrofluorometer (HORIBA JobinYvon) was used with excitation and emission slit widths of 5 nm. The maximum NR fluorescence obtained at ~630 nm was used for plotting bar diagrams.

α-Syn oligomers [12] = molecular target: T3, α-Syn oligomers; test: MTT assay of α-Syn oligomers pre-incubated with curcumin analogs; assay type: cell-based; conditions: 10 μM α-Syn + 5 μM analog, 30 min RT; SH-SY5Y cells
Description: as §4
For isolation of α-Syn oligomers, we used previously established protocol. Briefly, lyophilized α-Syn powder was dissolved in MES buffer, pH 6.0, 0.01% NaN3, at a concentration of 50 mg/ml. The dissolved protein was then centrifuged at 14,000 × g for 30 min at 4 °C using a table top microcentrifuge (HITACHI, himac CT15RE, Japan). […]

[13] = molecular target: T5, preformed α-Syn oligomers (Homo sapiens, UniProt P37840); test: Nile red binding assay on α-Syn oligomers; assay type: biochemical; conditions: compared to α-Syn oligomers alone
T5 construct: made in house; host or cells: Escherichia coli BL21
Experimental: Therefore, compounds that effectively reduce the toxicity of oligomers could be beneficial for the treatment of PD.
as §5

α-Syn = molecular target: T6, α-Syn (Homo sapiens, UniProt P37840); test: TEM of α-Syn aggregates formed in presence of analogs; assay type: biochemical
T6 construct: made in house; host or cells: Escherichia coli BL21
Experimental: Subsequently, we examined the effect of these analogs on α-Syn oligomerization by time dependent static light scattering experiment. […] After aggregation, TEM study was done to determine the effects of these analogs on the morphology of the resultant aggregates.
The samples were then washed thrice with autoclaved MQ. The samples were then stained with 10 μl of uranyl formate 1% (w/v) and incubated in dark for 10 min. The EM image of each sample was acquired at 120 kV with magnifications in the range of 26,000X and 43,000X using a transmission electron microscope (TECNAI12 D312 FEI, Netherlands).

For `COc1cc(/C=C/C(=O)CC(=O)/C=C/c2ccc(O)c(OC)c2)ccc1O` [C1, Curcumin (diferuloylmethane), reference compound], the “effect on toxicity of preformed α-Syn fibrils, MTT” value [1] was “reduction in toxicity”, the “effect on cell death by preformed α-Syn fibrils, LDH” value (preformed α-Syn fibrils [2]) was “decrease in cell death” and the “Calcein-AM/EthD-1 staining with preformed α-Syn fibrils” value (preformed α-Syn fibrils [3]) was “less nuclear staining by EthD-1”. The “secondary structure of preformed α-Syn fibrils by CD” value (preformed α-Syn fibrils [4]) was “remains unaltered”, the “LDH release with α-Syn oligomers” value (α-Syn oligomers [5]) was “reduced LDH release” and the “ethidium homodimer staining with α-Syn oligomers” value (α-Syn oligomers [6]) was “less ethidium homodimer staining”. For the same compound, the “morphology of α-Syn oligomers (TEM)” value (α-Syn oligomers [7]) was “significantly altered their morphology”, the “toxicity of α-Syn fibrils formed in presence of analog, MTT” value (α-Syn fibrils [8]) was “less toxicity to cells” and the “toxicity of α-Syn fibrils formed in presence of analog, LDH” value (α-Syn fibrils [9]) was “less toxicity to cells”.

In the case of `COc1ccc(/C=C/C(=O)CC(=O)/C=C/c2ccc(OC)c(OC)c2)cc1OC` [C2], the “relative stability compared with curcumin (slope of normalized fluorescence versus time)” value [10] is reported as “less stable than curcumin”, the “effect on cell death by preformed α-Syn fibrils, LDH” value (preformed α-Syn fibrils [2]) is reported as “decrease in cell death” and the “Nile red fluorescence of preformed α-Syn fibrils (exposed hydrophobic surface)” value (preformed α-Syn fibrils [11]) is reported as “less NR fluorescence for fibrils as compared to curcumin”. The “effect on toxicity of α-Syn oligomers, MTT” value (α-Syn oligomers [12]) was “slight reduction in the toxicity”, the “Nile red fluorescence of α-Syn oligomers (exposed hydrophobic surface)” value [13] was “increase in NR fluorescence” and the “average fibril thickness of fibrils formed in presence of analog” value (α-Syn) was “more in comparison to fibrils formed in presence of other analogs”.
